Like-named read-outs stand apart in the source and are kept apart here. Where a SMILES comes first, the peptide text is derived from it. The star is where a group is joined. Cbz = O=C(OCc1ccccc1)*
Tests used:
[1] = system: human iPSC neurons and astrocytes treated with 5 μM sAβ42s; assay: Focused small molecule screen, double culture (neuron, astrocyte), rescue from sAβ42s toxicity, high content imaging; type: cell-based; conditions: double culture, 5 μM sAβ42s; for percent rescue from sAβ42s toxicity at 25 µM / percent rescue from sAβ42s toxicity at 50 µM / percent rescue from sAβ42s toxicity at 6.25 µM / percent rescue from sAβ42s toxicity at 12.5 µM: Homo sapiens, iPSC
Method: (§1) FIGS. 11A-11D show synapse % rescue versus MAP2% rescue (FIGS. 11A-11B) and beta III tubulin % rescue versus MAP2% rescue (FIGS. 11C-11D), in neurons and astrocytes (FIGS. 11A and 11C) or neurons, astrocytes, and microglia (FIGS. 11B and 11D) treated with 5 μM sAβ42s and small molecules from a focused screen of known neuroprotective agents at multiple concentrations (50 μM, 25 μM, 12.5 μM and 6.25 μM (double culture), 50 μM, 12.5 μM, 3.1 μM and 0.78 μM (triple culture). Small molecules that prevented toxicity in dendrites (MAP2), synapses (Synapsin 1/2), cell count (CUX2), or axons ([…]) at or above 30% were considered hits (red dotted line).
Neurons from both NSC lines were evaluated by immunofluorescence staining. Briefly, cells were fixed with 4% PFA and 4% sucrose at room temperature for 20 minutes using Bravo automation. Fixed cells were then washed 2 times with PBS using Biotek 406 microplate washer (Beckman Coulter), followed by permeabilization and blocking by incubation with a solution containing 1×PBS, 0.1% Triton X-100, 2% donkey serum, and 1% BSA at room temperature for 30 minutes. Blocking solution was removed and cells were incubated with primary antibodies in blocking solution overnight at 4° C. After washing 6 times with PBS on Biotek 406 cell plate washer (Beckman Coulter), cells were then incubated with fluorophore-conjugated secondary antibodies for 1 hour at room temperature in the dark to avoid photobleaching. Cells were then washed 6 more times in with PBS before imaging. Fluorescent images were captured using IN Cell 6000 confocal microscope (GE Healthcare Life Sciences). The image analysis was performed with IN Cell 6000 analysis software.
Prior to experimentation, media volume in wells containing neurons was equalized with liquid handling automation (Bravo) in order to ensure precise control of concentrations. All Aβ42 oligomers, anti-Aβ, small molecules, inflammatory cytokines were prepared at 10× concentration and added to Neuronal Culture Media at an appropriate volume. For the repeated dosing experiments, the media were refreshed 50% at each dosing first, before adding Aβ42 oligomers, and/or anti-Aβ antibody at the specified final concentration.
(§2) In double (neuron, astrocyte) and triple (neuron, astrocyte, microglia) cultures, each small molecule listed in Table 1 was tested in the AD model paradigm at up to four concentrations. Molecules that characterized ≥30% rescue in any of the four measurements of dendrites area (MAP2), synapses count (synapsin 1/2), or cell count (CUX2), or axon area (Beta III Tubulin; “BT3”)) were classified as hits (FIGS. 11A-11D, Table 2, and Table 3).

[2] = system: human iPSC neurons, astrocytes and microglia treated with 5 μM sAβ42s; assay: Focused small molecule screen, triple culture (neuron, astrocyte, microglia), rescue from sAβ42s toxicity; type: cell-based; conditions: for percent rescue from sAβ42s toxicity at 50 µM / percent rescue from sAβ42s toxicity at 12.5 µM: Homo sapiens, iPSC
Method: as §1
Frozen cells were thawed and immediately seeded at a density of 8,000 cells/well of a 384-well plate onto 8-week old neuron-astrocyte co-culture in Microglia media (BrainPhys™ neuronal media (Stem Cell Technologies) supplemented with 1× B27 with vitamin A, 1×N2 Plus Media Supplement (R&D Systems), 20 ng/mL BDNF, 20 ng/mL GDNF, 1 mM creatine, 200 nM L-ascorbic acid, 1 μg/mL mouse laminin, 0.5 mM GlutaMAX™ (Thermofisher), 0.5× penicillin-streptomycin, 1× normocin, 5 ng/mL TGF-β, 100 ng/mL human IL-34, 1.5 μg/mL cholesterol, 1 ng/mL gondoic acid, 100 ng/mL oleic acid, 460 μM thioglycerol, 1× insulin-transferrin-selenium, 25 ng/mL rhM-CSF, 5.4 μg/mL human insulin solution).
as §2

[3] = 25 μM compound, read-out: % B3T rescue
[4] = 25 μM compound, read-out: % Cux2 rescue
[5] = 25 μM compound, read-out: % MAP2 rescue
[6] = 25 μM compound, read-out: % Synapse rescue
[7] = 50 μM compound, read-out: % B3T rescue
[8] = 50 μM compound, read-out: % Cux2 rescue
[9] = 50 μM compound, read-out: % MAP2 rescue
[10] = 50 μM compound, read-out: % Synapse rescue
[11] = 50.00 μM compound, read-out: % B3T rescue
[12] = 50.00 μM compound, read-out: % MAP2 rescue
[13] = 50.00 μM compound, read-out: % Synapse rescue

In the case of O=C1Nc2ccc3ncsc3c2/C1=C/Nc1ccc(S(=O)(=O)Nc2ccccn2)cc1 [GW8510], the “% B3T rescue” value ([1]; 6.25 μM compound) is reported as 32%, the “% Cux2 rescue” value ([1]; 6.25 μM compound) is reported as −1% and the “% MAP2 rescue” value ([1]; 6.25 μM compound) is reported as 48%. The “% Synapse rescue” value ([1]; 6.25 μM compound) was 52%, the “% B3T rescue” value ([1]; 12.5 μM compound) was 20% and the “% Cux2 rescue” value ([1]; 12.5 μM compound) was 16%. For the same compound, the “% MAP2 rescue” value ([1]; 12.5 μM compound) was 37%, the “% Synapse rescue” value ([1]; 12.5 μM compound) was 38% and the “% B3T rescue” value ([1]; 25 μM compound) was 31%. For the same compound, the “% Cux2 rescue” value ([1]; 25 μM compound) was −18%, the “% MAP2 rescue” value ([1]; 25 μM compound) was 37% and the “% Synapse rescue” value ([1]; 25 μM compound) was 38%. For the same compound, the “% B3T rescue” value ([1]; 50 μM compound) was 47%, the “% Cux2 rescue” value ([1]; 50 μM compound) was −22% and the “% MAP2 rescue” value ([1]; 50 μM compound) was 52%. For the same compound, the “% Synapse rescue” value ([1]; 50 μM compound) was 49%, the “% B3T rescue” value ([2]; 0.78 μM compound) was 45% and the “% MAP2 rescue” value ([2]; 0.78 μM compound) was −4%. The “% Synapse rescue” value ([2]; 0.78 μM compound) was 8%, the “% B3T rescue” value ([2]; 3.13 μM compound) was 70% and the “% MAP2 rescue” value ([2]; 3.13 μM compound) was 15%. The “% Synapse rescue” value ([2]; 3.13 μM compound) was 25%, the “% B3T rescue” value ([2]; 12.50 μM compound) was 68% and the “% MAP2 rescue” value ([2]; 12.50 μM compound) was 28%. The “% Synapse rescue” value ([2]; 12.50 μM compound) was 32%, the “% B3T rescue” value ([2]; 50.00 μM compound) was 63% and the “% MAP2 rescue” value ([2]; 50.00 μM compound) was −8%. For the same compound, the “% Synapse rescue” value ([2]; 50.00 μM compound) was −15%.
Work on O=c1cc(-c2ccc(O)c(O)c2)oc2cc(O)cc(O)c12 [Luteolin] yielded a percent rescue from sAβ42s toxicity at 25 µM [1, 3] of 29%, a percent rescue from sAβ42s toxicity at 25 µM [1, 4] of 12% and a percent rescue from sAβ42s toxicity at 25 µM [1, 5] of 26%. The percent rescue from sAβ42s toxicity at 25 µM [1, 6] was 13%, the percent rescue from sAβ42s toxicity at 50 µM [1, 7] was 66% and the percent rescue from sAβ42s toxicity at 50 µM [1, 8] was 19%. For the same compound, the percent rescue from sAβ42s toxicity at 50 µM [1, 9] was 55%, the percent rescue from sAβ42s toxicity at 50 µM [1, 10] was 37% and the percent rescue from sAβ42s toxicity at 50 µM [2, 11] was 91%. For the same compound, the percent rescue from sAβ42s toxicity at 50 µM [2, 12] was 73% and the percent rescue from sAβ42s toxicity at 50 µM [2, 13] was 75%.
CC(C)C[C@@H](C=O)NC(=O)[C@H](CC(C)C)NC(=O)[C@H](CC(C)C)NC(=O)OCc1ccccc1 [MG-132] (Cbz-Leu-Leu-Leu-aldehyde) was tested, and the percent rescue from sAβ42s toxicity at 6.25 µM ([1]; 6.25 μM compound, read-out: % B3T rescue) was -3%, the percent rescue from sAβ42s toxicity at 6.25 µM ([1]; 6.25 μM compound, read-out: % Cux2 rescue) was 80% and the percent rescue from sAβ42s toxicity at 6.25 µM ([1]; 6.25 μM compound, read-out: % MAP2 rescue) was 18%. The percent rescue from sAβ42s toxicity at 6.25 µM ([1]; 6.25 μM compound, read-out: % Synapse rescue) was -6%, the percent rescue from sAβ42s toxicity at 12.5 µM ([1]; 12.5 μM compound, read-out: % B3T rescue) was 7% and the percent rescue from sAβ42s toxicity at 12.5 µM ([1]; 12.5 μM compound, read-out: % Cux2 rescue) was 87%. The percent rescue from sAβ42s toxicity at 12.5 µM ([1]; 12.5 μM compound, read-out: % MAP2 rescue) was 24%, the percent rescue from sAβ42s toxicity at 12.5 µM ([1]; 12.5 μM compound, read-out: % Synapse rescue) was 4% and the percent rescue from sAβ42s toxicity at 25 µM [1, 3] was 30%. For the same compound, the percent rescue from sAβ42s toxicity at 25 µM [1, 4] was 91%, the percent rescue from sAβ42s toxicity at 25 µM [1, 5] was 26% and the percent rescue from sAβ42s toxicity at 25 µM [1, 6] was 8%. The percent rescue from sAβ42s toxicity at 50 µM [1, 7] was 57%, the percent rescue from sAβ42s toxicity at 50 µM [1, 8] was 90% and the percent rescue from sAβ42s toxicity at 50 µM [1, 9] was 25%. It also gave a percent rescue from sAβ42s toxicity at 50 µM [1, 10] of 4%, a percent rescue from sAβ42s toxicity at 12.5 µM ([2]; 12.50 μM compound, read-out: % B3T rescue) of 35% and a percent rescue from sAβ42s toxicity at 12.5 µM ([2]; 12.50 μM compound, read-out: % MAP2 rescue) of 18%. The percent rescue from sAβ42s toxicity at 12.5 µM ([2]; 12.50 μM compound, read-out: % Synapse rescue) was -7%, the percent rescue from sAβ42s toxicity at 50 µM [2, 11] was 46% and the percent rescue from sAβ42s toxicity at 50 µM [2, 12] was 25%. The percent rescue from sAβ42s toxicity at 50 µM [2, 13] was -11%.

— patent publication US20230014181A1, “CULTURE SYSTEM AND METHODS FOR IMPROVED MODELING OF NEUROLOGICAL CONDITIONS” (Genentech, Inc., priority 2021, published 2023)
